Data set [1] concerns HCT-116. Nature of the data set: In vitro cytotoxicity was determined by inhibition against HCT116 cell line proliferation after 72 hours of incubation. To be noted: Homo sapiens, HCT-116, 72 h. Type of data set: cell-based.
The subject of data set [2] is M109. Nature of the data set: In vivo cytotoxicity of intraperitoneally administered compound at dose 50 mgkg/inj was determined against ip implanted murine M-109 lung carcinoma. Type of data set: organism-based. Set-up: dose mgkg, route intraperitoneal. To be noted: mouse.
The subject of data set [3] is HCT-116. Nature of the data set: cells. Particulars: Homo sapiens.
Data set [4] deals with HCT-116. Nature of the data set: Potency relative to paclitaxel in a tubulin polymerization assay in HCT116 cell line. Format: functional, Homo sapiens.
The test system of data set [5] is M109. Nature of the data set: In vivo cytotoxicity of intraperitoneally administered compound at dose 32 mg/kg/inj was determined against ip implanted murine M-109 lung carcinoma. Type of data set: organism-based. Also noted: route intraperitoneal. To be noted: mouse.
Data set [6] deals with M109. Nature of the data set: In vivo cytotoxicity of intraperitoneally administered compound at dose 1.6 mg/kg/inj was determined against ip implanted murine M-109 lung carcinoma. Type of data set: organism-based. Set-up: route intraperitoneal. Particulars: mouse.
The subject of data set [7] is M109. Nature of the data set: In vivo cytotoxicity of intraperitoneally administered compound at dose 4 mg/kg/inj was determined against ip implanted murine M-109 lung carcinoma. Type of data set: organism-based. Set-up: route intraperitoneal. Particulars: mouse.
Data set [8] deals with M109. Nature of the data set: In vivo cytotoxicity of intraperitoneally administered compound at dose 1 mg/kg/injection was determined against ip implanted murine M-109 lung carcinoma. Type of data set: organism-based. Also noted: route intraperitoneal. Particulars: mouse.
The test system of data set [9] is M109. As to the kind of experiment: In vivo cytotoxicity of intraperitoneally administered compound at dose 16 mg/kg/inj was determined against ip implanted murine M-109 lung carcinoma. Type of data set: organism-based. Particulars: mouse. Set-up: route intraperitoneal.
The test system of data set [10] is M109. As to the kind of experiment: In vivo cytotoxicity of intraperitoneally administered compound at dose 25 mgkg/inj was determined against ip implanted murine M-109 lung carcinoma. Set-up: dose mgkg, route intraperitoneal. To be noted: mouse. Format: organism-based.
The test system of data set [11] is M109. Nature of the data set: In vivo cytotoxicity of intraperitoneally administered compound at dose 3 mg/kg/inj was determined against ip implanted murine M-109 lung carcinoma. Also noted: route intraperitoneal. To be noted: mouse. Format: organism-based.

Structures are written as SMILES.

In the case of `COC(=O)O[C@@]12CO[C@@H]1C[C@H](O)[C@@]1(C)C(=O)[C@H](OC(C)=O)C3=C(C)[C@@H](OC(=O)[C@H](O)C(NC(=O)c4ccccc4)c4ccccc4)C[C@@](O)([C@@H](OC(=O)c4ccccc4)C12)C3(C)C` (stereo partly specified), the IC50 (commonly the concentration needed to halve the response being measured) came to 2 nM in the data set with HCT-116 [1] and 0.5 nM in the data set with HCT-116 [3]. The T/C in the data set with M109 [2] is 161%. In addition, the Tubulin polymerization ratio with HCT-116 [4] is 0.41.

Consider `COC(=O)O[C@@]12CO[C@@H]1C[C@H](O)[C@@]1(C)C(=O)[C@H](OC(C)=O)C3=C(C)[C@@H](OC(=O)[C@H](O)C(NC(=O)OC(C)(C)C)c4ccco4)C[C@@](O)([C@@H](OC(=O)c4ccccc4)C12)C3(C)C` (stereo partly specified), for which the IC50 in the data set on HCT-116 [1] is 1.6 nM; with HCT-116 [3] it was 0.4 nM. The molecule further came in with a T/C in the data set on M109 [5] of 183%. For the same molecule, the Tubulin polymerization ratio in the data set on HCT-116 [4] amounted to 0.66.

For `CC(=O)O[C@H]1C(=O)[C@@]2(C)C([C@H](OC(=O)c3ccccc3)[C@]3(O)C[C@H](OC(=O)[C@H](O)C(NC(=O)OC(C)(C)C)c4ccccc4)C(C)=C1C3(C)C)[C@]1(OC(=O)C3CC3)CO[C@@H]1C[C@@H]2O` (stereo partly specified), the IC50 in the data set with HCT-116 [1] was found to be 0.8 nM; in the data set on HCT-116 [3], 0.2 nM. This molecule had a T/C with M109 [6] of 115%. Besides, in the data set on HCT-116 [4], the Tubulin polymerization ratio was determined as 0.22.

On to `CC(=O)O[C@H]1C(=O)[C@@]2(C)C([C@H](OC(=O)c3ccccc3)[C@]3(O)C[C@H](OC(=O)[C@H](O)C(NC(=O)OC(C)(C)C)c4ccco4)C(C)=C1C3(C)C)[C@]1(OC(=O)C3CC3)CO[C@@H]1C[C@@H]2O` (stereo partly specified), for which the IC50 with HCT-116 [1] came out at 1.3 nM; in the data set with HCT-116 [3] it was 0.33 nM. In addition, the T/C in the data set on M109 [7] was determined as 100%. Also, the Tubulin polymerization ratio in the data set on HCT-116 [4] is reported as 0.33.

Turning to `CCCC(=O)O[C@@]12CO[C@@H]1C[C@H](O)[C@@]1(C)C(=O)[C@H](OC(C)=O)C3=C(C)[C@@H](OC(=O)[C@H](O)C(NC(=O)OC(C)(C)C)c4ccco4)C[C@@](O)([C@@H](OC(=O)c4ccccc4)C12)C3(C)C` (stereo partly specified), the IC50 in the data set with HCT-116 [1] was determined as 2.8 nM; in the data set on HCT-116 [3] it was 0.7 nM. Besides, the T/C in the data set on M109 [8] is recorded as 96 mg kg-1 injection-1. The Tubulin polymerization ratio in the data set on HCT-116 [4] is reported as 0.5.

Turning to `CC(=O)O[C@H]1C(=O)[C@@]2(C)C([C@H](OC(=O)c3ccccc3)[C@]3(O)C[C@H](OC(=O)[C@H](O)C(NC(=O)c4ccccc4)c4ccco4)C(C)=C1C3(C)C)[C@]1(OC(=O)C3CCC3)CO[C@@H]1C[C@@H]2O` (stereo partly specified), the IC50 with HCT-116 [1] came to 1.6 nM; in the data set on HCT-116 [3], 0.4 nM. The T/C with M109 [9] was found to be 188 mg kg-1 injection-1. For the same molecule, in the data set on HCT-116 [4], the Tubulin polymerization ratio worked out at 0.29.

Regarding `CCOC(=O)O[C@@]12CO[C@@H]1C[C@H](O)[C@@]1(C)C(=O)[C@H](OC(C)=O)C3=C(C)[C@@H](OC(=O)[C@H](O)C(NC(=O)OC(C)(C)C)c4ccco4)C[C@@](O)([C@@H](OC(=O)c4ccccc4)C12)C3(C)C` (stereo partly specified), the figures for the IC50 in the data set on HCT-116 [1] and with HCT-116 [3] were 2.95 nM and 0.59 nM, respectively. The T/C in the data set on M109 [7] stood at 144%. Also, in the data set on HCT-116 [4], the Tubulin polymerization ratio was determined as 0.3.

For `CCCC(=O)O[C@@]12CO[C@@H]1C[C@H](O)[C@@]1(C)C(=O)[C@H](OC(C)=O)C3=C(C)[C@@H](OC(=O)[C@H](O)C(NC(=O)c4ccccc4)c4ccccc4)C[C@@](O)([C@@H](OC(=O)c4ccccc4)C12)C3(C)C` (stereo partly specified), the IC50 in the data set with HCT-116 [1] came out at 1.1 nM; in the data set on HCT-116 [3], 0.25 nM. This molecule also had a T/C in the data set on M109 [10] of 164 mg kg-1 injection-1. For the same molecule, in the data set on HCT-116 [4], the Tubulin polymerization ratio came out at 0.61.

On to `CC(=O)O[C@H]1C(=O)[C@@]2(C)C([C@H](OC(=O)c3ccccc3)[C@]3(O)C[C@H](OC(=O)[C@H](O)C(NC(=O)c4ccccc4)c4ccco4)C(C)=C1C3(C)C)[C@]1(OC(=O)C3CC3)CO[C@@H]1C[C@@H]2O` (stereo partly specified), for which the IC50 was 0.9 nM in the data set on HCT-116 [1] and 0.22 nM in the data set on HCT-116 [3]. Moreover, the T/C in the data set on M109 [11] came out at 132 mg kg-1 injection-1. For the same molecule, the Tubulin polymerization ratio in the data set on HCT-116 [4] stood at 0.33.

For the origin of these results see ChEMBL document CHEMBL1153670 (Bioorg Med Chem Lett, 1995).
